Data as given in patent publication US9681664B2, “Macrocyclic picolinamides as fungicides” (Dow Agrosciences LLC, priority 2012, dated 2017).

Legend:
Type in all cases: in vivo
Erysiphe cichoracearum = test: Powdery mildew of cucumber (ERYSCI) disease control; settings: Golovinomyces cichoracearum, 24 h, 1 Day Protectant, high volume, read-out: Disease Control ERYSCI 1 DP
Description: Technical grades of materials were dissolved in acetone, which were then mixed with nine volumes of water containing 110 ppm Triton X-100. The fungicide solutions were applied onto wheat seedlings using an automated booth sprayer to run-off. All sprayed plants were allowed to air dry prior to further handling. All fungicides were evaluated using the aforementioned method for their activity vs. all target diseases. Wheat leaf blotch and brown rust activity were also evaluated using track spray applications, in which case the fungicides were formulated as EC formulations, containing 0.1% Trycol 5941 in the spray solutions. Cucumber seedlings (variety Bush Pickle) were grown in soil-less Metro mix, with one plant per pot, and used in the test when 12 to 14 days old. Plants were inoculated with a spore suspension 24 hr following fungicide treatments. After inoculation the plants remained in the greenhouse set at 20° C. until disease was fully expressed. Fungicide formulation, application and disease assessment on the sprayed leaves followed the procedures as described in the Example A.

Rhyncosporium secalis = test: Barley scald (RHYNSE) disease control; settings: 24 h, High volume application, 1 Day Protectant, read-out: RHYNSE 1 DP disease control
Description: Technical grades of materials were dissolved in acetone, which were then mixed with nine volumes of water containing 110 ppm Triton X-100. The fungicide solutions were applied onto wheat seedlings using an automated booth sprayer to run-off. All sprayed plants were allowed to air dry prior to further handling. All fungicides were evaluated using the aforementioned method for their activity vs. all target diseases. Wheat leaf blotch and brown rust activity were also evaluated using track spray applications, in which case the fungicides were formulated as EC formulations, containing 0.1% Trycol 5941 in the spray solutions. Barley seedlings (variety Harrington) were propagated in soil-less Metro mix, with each pot having 8 to 12 plants, and used in the test when first leaf was fully emerged. Test plants were inoculated by an aqueous spore suspension of Rhyncosporium secalis 24 hr after fungicide treatments. After inoculation the plants were kept in a dew room at 20° C. with 100% relative humidity for 48 hr. The plants were then transferred to a greenhouse set at 20° C. for disease to develop. Fungicide formulation, application and disease assessment on the sprayed leaves followed the procedures as described in the Example A.

Alternaria solani = test: Tomato early blight (ALTESO) disease control; settings: 24 h, 1 Day Protectant, high volume, read-out: Disease Control ALTESO 1 DP
Description: Technical grades of materials were dissolved in acetone, which were then mixed with nine volumes of water containing 110 ppm Triton X-100. The fungicide solutions were applied onto wheat seedlings using an automated booth sprayer to run-off. All sprayed plants were allowed to air dry prior to further handling. All fungicides were evaluated using the aforementioned method for their activity vs. all target diseases. Wheat leaf blotch and brown rust activity were also evaluated using track spray applications, in which case the fungicides were formulated as EC formulations, containing 0.1% Trycol 5941 in the spray solutions. Tomato plants (variety Outdoor girl) were propagated in soil-less Metro mix, with each pot having one plant, and used when 12 to 14 days old. Test plants were inoculated with an aqueous spore suspension of Alternaria solani 24 hr after fungicide treatments. After inoculation the plants were kept in 100% relative humidity (one day in a dark dew chamber followed by two to three days in a lighted dew chamber at 20° C.) to permit spores to germinate and infect the leaf. The plants were then transferred to a growth room at 22° C. for disease to develop. Fungicide formulation, application and disease assessment on the sprayed leaves followed the procedures as described in the Example A.

[1] = system: Glomerella lagenarium; Anamorph: Colletotrichum lagenarium; test: Cucumber anthracnose (COLLLA) disease control; settings: Colletotrichum orbiculare, 24 h, 1 Day Protectant, high volume, read-out: Disease Control COLLLA 1 DP
Description: Technical grades of materials were dissolved in acetone, which were then mixed with nine volumes of water containing 110 ppm Triton X-100. The fungicide solutions were applied onto wheat seedlings using an automated booth sprayer to run-off. All sprayed plants were allowed to air dry prior to further handling. All fungicides were evaluated using the aforementioned method for their activity vs. all target diseases. Wheat leaf blotch and brown rust activity were also evaluated using track spray applications, in which case the fungicides were formulated as EC formulations, containing 0.1% Trycol 5941 in the spray solutions. Cucumber seedlings (variety Bush Pickle) were propagated in soil-less Metro mix, with each pot having one plant, and used in the test when 12 to 14 days old. Test plants were inoculated with an aqueous spore suspension of Colletotrichum lagenarium 24 hr after fungicide treatments. After inoculation the plants were kept in a dew room at 22° C. with 100% relative humidity for 48 hr to permit spores to germinate and infect the leaf. The plants were then transferred to a growth room set at 22° C. for disease to develop. Fungicide formulation, application and disease assessment on the sprayed leaves followed the procedures as described in the Example A.

Venturia inaequalis = test: Apple scab (VENTIN) disease control; settings: 24 h, High volume application, 1 Day Protectant, read-out: VENTIN 1 DP disease control
Description: Technical grades of materials were dissolved in acetone, which were then mixed with nine volumes of water containing 110 ppm Triton X-100. The fungicide solutions were applied onto wheat seedlings using an automated booth sprayer to run-off. All sprayed plants were allowed to air dry prior to further handling. All fungicides were evaluated using the aforementioned method for their activity vs. all target diseases. Wheat leaf blotch and brown rust activity were also evaluated using track spray applications, in which case the fungicides were formulated as EC formulations, containing 0.1% Trycol 5941 in the spray solutions. Apple seedlings (variety McIntosh) were grown in soil-less Metro mix, with one plant per pot. Seedlings with two expanding young leaves at the top (older leaves at bottom of the plants were trimmed) were used in the test. Plants were inoculated with a spore suspension of Venturia inaequalis 24 hr after fungicide treatment and kept in a 22° C. dew chamber with 100% RH for 48 hr, and then moved to a greenhouse set at 20° C. for disease to develop. Fungicide formulation, application and disease assessment on the sprayed leaves followed the procedures as described in the Example A.

SMILES | pest or weed control at 100 ppm (Erysiphe cichoracearum) | pest or weed control at 100 ppm (Rhyncosporium secalis) | pest or weed control at 100 ppm (Alternaria solani) | pest or weed control at 100 ppm [1] | pest or weed control at 100 ppm (Venturia inaequalis)
COc1ccnc(C(=O)N[C@H]2CCC[C@H](Oc3ccccc3)[C@@H](OCCCc3ccccc3)[C@H](C)OC2=O)c1OCOC(C)=O [F130] | 80 to 100% | 80 to 100% | 80 to 100% |  | 
COCCC(=O)Oc1c(OC)ccnc1C(=O)N[C@H]1CCC[C@H](Oc2ccccc2)[C@@H](OCCCc2ccccc2)[C@H](C)OC1=O [F132] | 0 to 80% | 0 to 80% | 80 to 100% |  | 
COc1ccnc(C(=O)N[C@H]2CCC[C@H](OCCCc3ccccc3)[C@@H](Oc3ccccc3)[C@H](C)OC2=O)c1OC(C)=O [F134] | 0 to 80% | 80 to 100% | 0 to 80% |  | 
CCCO[C@H]1CCC[C@H](NC(=O)c2nccc(OC)c2OCOC(C)=O)C(=O)O[C@@H](C)[C@@H]1Oc1ccccc1 [F138] | 0 to 80% | 80 to 100% | 80 to 100% | 80 to 100% | 
CCCO[C@H]1CCC[C@H](NC(=O)c2nccc(OC)c2OCOC(=O)C(C)C)C(=O)O[C@@H](C)[C@@H]1Oc1ccccc1 [F139] | 0 to 80% | 80 to 100% | 80 to 100% | 80 to 100% | 
CCCO[C@H]1CCC[C@H](NC(=O)c2nccc(OC)c2OC(=O)CCOC)C(=O)O[C@@H](C)[C@@H]1Oc1ccccc1 [F140] | < 0% | 80 to 100% | 80 to 100% | 80 to 100% | 
CCCO[C@H]1CCC[C@H](NC(=O)c2nccc(OC)c2OC(C)=O)C(=O)O[C@@H](C)[C@@H]1Oc1ccccc1 [F141] | 0 to 80% | 80 to 100% | 80 to 100% | 80 to 100% | 0 to 80%
CCCO[C@H]1CCC[C@H](NC(=O)c2nccc(OC)c2OCOC(=O)C(C)C)C(=O)O[C@@H](C)[C@@H]1OC1CCCC1 [F154] | 80 to 100% | 80 to 100% | 80 to 100% | 80 to 100% | 
CCCO[C@H]1CCC[C@H](NC(=O)c2nccc(OC)c2OCOC(C)=O)C(=O)O[C@@H](C)[C@@H]1OC1CCCC1 [F155] | 80 to 100% | 0 to 80% | 80 to 100% | 80 to 100% | 
COc1ccnc(C(=O)N[C@H]2CCC[C@H](OC3CCCC3)[C@@H](OCCCc3ccccc3)[C@H](C)OC2=O)c1OCOC(C)=O [F165] | 0 to 80% | 80 to 100% | 80 to 100% |  | 
CCCCCO[C@H]1[C@H](C)OC(=O)[C@@H](NC(=O)c2nccc(OC)c2OCOC(C)=O)CCC[C@@H]1OC1CCCC1 [F166] | 80 to 100% | 80 to 100% | 80 to 100% |  | 
COc1ccc(O[C@H]2CCC[C@H](NC(=O)c3nccc(OC)c3OCOC(=O)C(C)C)C(=O)O[C@@H](C)[C@@H]2OC2CCCC2)cc1 [F169] | 80 to 100% | 80 to 100% | 80 to 100% |  | 
COc1ccc(O[C@H]2CCC[C@H](NC(=O)c3nccc(OC)c3OCOC(C)=O)C(=O)O[C@@H](C)[C@@H]2OC2CCCC2)cc1 [F170] | 0 to 80% | 80 to 100% | 80 to 100% |  | 
COc1ccnc(C(=O)N[C@H]2CCC[C@H](OCCCC(F)(F)F)[C@@H](OC3CCCC3)[C@H](C)OC2=O)c1OCOC(=O)C(C)C [F171] | 80 to 100% | 80 to 100% | 80 to 100% |  | 
COc1ccnc(C(=O)N[C@H]2CCC[C@H](OCCCC(F)(F)F)[C@@H](OC3CCCC3)[C@H](C)OC2=O)c1OCOC(C)=O [F172] | 80 to 100% | 80 to 100% | 80 to 100% |  | 
COc1ccnc(C(=O)N[C@H]2CCC[C@H](OCCCC(F)(F)F)[C@@H](OC3CCCC3)[C@H](C)OC2=O)c1OC(C)=O [F173] | 0 to 80% | 80 to 100% | 80 to 100% |  | 
CCOCC(=O)OCOc1c(OC)ccnc1C(=O)N[C@H]1CCC[C@H](Oc2ccccc2)[C@@H](OC(=O)C2CCCC2)[C@H](C)OC1=O [F237] | < 0% | < 0% | 0 to 80% | 0 to 80% | 80 to 100%
COc1ccnc(C(=O)N[C@H]2CCC[C@H](Oc3ccccc3)[C@@H](OC(=O)C3CC3)[C@H](C)OC2=O)c1OCOC(=O)C(C)C [F241] | < 0% | 0 to 80% | 0 to 80% | 80 to 100% | 0 to 80%
COc1ccnc(C(=O)N[C@H]2CCC[C@H](Oc3ccccc3)[C@@H](OC(=O)C3CC3)[C@H](C)OC2=O)c1OC(C)=O [F242] | < 0% | < 0% | < 0% | 80 to 100% | 0 to 80%
C=C(C)CO[C@H]1CCC[C@H](NC(=O)c2nccc(OC)c2OCOC(C)=O)C(=O)O[C@@H](C)[C@@H]1OC [F250] | < 0% | 0 to 80% | 0 to 80% | 0 to 80% | 80 to 100%
COc1ccnc(C(=O)N[C@H]2CCC[C@H](OCC(C)C)[C@@H](OC)[C@H](C)OC2=O)c1OCOC(C)=O [F251] | < 0% | 0 to 80% | 0 to 80% | 80 to 100% | < 0%
COc1ccnc(C(=O)N[C@H]2CCC[C@H](Oc3ccccc3)[C@@H](OC)[C@H](C)OC2=O)c1OCOC(C)=O [F252] | < 0% | 80 to 100% | 0 to 80% | 80 to 100% | 0 to 80%
C=C(C)CO[C@H]1CCC[C@H](NC(=O)c2nccc(OC)c2OCOC(=O)C(C)C)C(=O)O[C@@H](C)[C@@H]1OC [F253] | < 0% | 0 to 80% | 0 to 80% | 80 to 100% | 80 to 100%
